*1 amine or outer side, *2 acyl side, *3 side chain or, on linkers, in order; H or OH if unused. Where a SMILES comes first, the peptide text is derived from it. Bridges are numbered along the chain shown (N, C = ends). Roman numbers before positions name the chains, in order. [ ]: non-standard residue; d: D form. X1 = O=C(CCCCC(=O)[*:2])NCCCOCCOCCOCCCNC(=O)CCC(=O)[*:1]; NMeF = CN[C@@H](Cc1ccccc1)C(=O)O; NMeL = CN[C@@H](CC(C)C)C(=O)O; NMeV = CN[C@H](C(=O)O)C(C)C

For one series, the system named is Sprague-Dawley rats. Nature of the series: Acute and sub-chronic toxicity, mortality, behaviour and body weight. In kind it is in vivo. The method, then:
(§1) 24 male Sprague Dawley rats were randomly divided into three groups: control, SP1A, and SP1B. Each group contains 8 animals and administration of SP1was performed for 42 days through a tail vein by the following schedule: Control: Without any treatment.
(§2) Rats were sacrificed after 42 days of injection schedule and blood was collected for hematological and biochemical estimations. For the histopathological study, the liver and kidney were also isolated very carefully and checked for cytoarchitectural changes if any.
(§3) The body weights and volumes of SP1 to be administered were recorded for each animal. Prior to injection, the tail of the animal was warmed by using warm water circulating pad placed under the cage for 5-10 minutes to dilate the veins. A 25-gauge needle was inserted into the vein towards the direction of the head. The needle and syringe were kept parallel to the tail. […]
µg/kg and 500 µg/kg) was injected into the tail slowly. The needle was removed very carefully and gentle compression applied until bleeding was stopped. Animals were returned to their home cage. […]

Another series has as its system liver and kidney tissue. The experiment in a line: Sub-chronic toxicity, histopathology of liver and kidney. Conditions: 100 and 500 μg kg−1, tail vein, once daily, 42 days, n = 8/group. In kind it is in vivo, Sprague-Dawley rats. The method, then:
The tabulated biochemical profile (novel biomarkers of the liver and kidney) corroborates the safety charms of SP1 for further in vivo studies.
as §1, §2, §3
The biochemical parameters including blood glucose, serum urea, creatinine, total bilirubin, serum glutamic oxaloacetic transaminase (SGOT), serum glutamic pyruvic transaminase (SGPT), and alkaline phosphatase (ALP) were analyzed for sub-chronic toxicity of SP1by using commercially available diagnostic test kits (Crest Biosystems kits, India). […]

The test system of a further series is cleaved caspase-3. The experiment in a line: Western blot, cleaved caspase-3. Type of series: cell-based, human. The method, then:
e. Measurement of intracellular calcium (Ca 2+)
Ca2+sensitive dye Fura-2AM was used to measure free intracellular Ca2+level in SH-SY5Y cell suspension by the previously described method.12 Following treatment with the respective drug, Fura-2 AM (Cayman, USA) at a concentration of 5 µM was added to the culture medium and incubated at 37°C for 45 min. Next, Krebs-Ringer-HEPES (KRH) buffer (135mM NaCl, 5mM KCl, 1mM MgSO4, 0.4mM KH2PO4, 1mM CaCl2, 5.5mM glucose, 20mM HEPES, pH 7.4) was used to wash each plate twice containing (1×10^6cells). Fluorescent microplate reader (FLX 800, Biotek, USA) was used to measure the fluorescence intensity with an excitation and emission spectra of […], respectively. Results are Mean±SEM of quadruplicate measurements from three separate experiments and expressed in the increase in percent relative fluorescent unit (RFU) relative to the baseline reading.
Western blot analysis was performed to measure Bax, Bcl-2, cleaved Caspase 9 and cleaved Caspase 3, pro and anti-apoptotic proteins expression. About 5× 10^6 cells were washed with PBS twice following […]
overnight. […] The optical density (OD) value of each band was analyzed by the electrophoresis image analysis system (Smartview 2001, S/N: SV-0002202, Japan) and normalized against the corresponding β-actin band. […]
In general terms: A western blot detects proteins with antibodies after separation by electrophoresis.

In the case of `CC(C)C[C@H](NC(=O)CNC(=O)CCC(=O)NCCCOCCOCCOCCCNC(=O)CCCCC(=O)NCC(=O)N(C)[C@@H](CC(C)C)C(=O)N[C@H](C(=O)N(C)[C@@H](Cc1ccccc1)C(=O)N[C@@H](Cc1ccccc1)C(=O)N[C@@H](C)C(N)=O)C(C)C)C(=O)N(C)[C@H](C(=O)N[C@@H](Cc1ccccc1)C(=O)N(C)[C@@H](Cc1ccccc1)C(=O)N[C@@H](C)C(N)=O)C(C)C` [SP1] (I: GL[NMeV]F[NMeF]A-NH2 / II: G[NMeL]V[NMeF]FA-NH2; linker I:N-II:N via X1), the “mortality and behavioral patterns” value in the series on Sprague-Dawley rats (100 and 500 μg kg−1, tail vein, 42 days) is “causes neither mortality nor abnormal behavioral patterns in rats”. Moreover, the body weight entry in the series on Sprague-Dawley rats (100 and 500 μg kg−1, days 7, 21, and 42, vs control) is on record as “did not observe any significant changes in the rats' body weight”. The “cytoarchitectural changes in liver and kidney tissue” value in the series with liver and kidney tissue was “did not observe any cytoarchitectural changes in the liver and kidney tissue”.

With “Aβ40: commercially available Aβ40 peptide”, the “caspase-3 activation by Aβ40 alone” value with cleaved caspase-3 is “leads to activation of caspase-3 directed DNA breakage, nuclear chromatin condensation, and neurocellular apoptosis”.

The record behind these values is PMC8179358, “An explicitly designed paratope of amyloid-β prevents neuronal apoptosis in vitro and hippocampal damage in rat brain” (Chemical Science, 2020).
